Reference: ChEMBL document CHEMBL1201862, “PubChem BioAssay data set” (2004)
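Five compound concentrations were applied to cells in 96-well plates for 48 hours; endpoints were derived by simple linear interpolation of the resulting dose-response curve. GI50 = concentration required for 50% inhibition of growth.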 The source made the active and inactive calls. Rule as the data show it: active = GI50 up to about 1.1 µM and inactive = higher.

Columns and labels:
Test in all cases: NCI anticancer screen, dose series, 48 h
[1] = test system: SK-MEL-2
[2] = test system: HCC 2998
[3] = test system: KM12
[4] = test system: EKVX
[5] = test system: OVCAR-3
[6] = test system: 786-0
[7] = test system: SK-MEL-28
[8] = test system: UACC-257
[9] = test system: LOX IMVI
[10] = test system: HOP-62
[11] = test system: T47D
[12] = test system: NCI/ADR-RES
[13] = test system: MDA-MB-435
[14] = test system: SF-539
[15] = test system: OVCAR-8
[16] = test system: SN12C
[17] = test system: TK-10
[18] = test system: NCI-H226
[19] = test system: PC-3
[20] = test system: SF-295
[21] = test system: HT-29
[22] = test system: HOP-92
[23] = test system: ACHN
[24] = test system: SK-OV-3
[25] = test system: HL-60
[26] = test system: A498
[27] = test system: HCT-15
[28] = test system: UO-31
[29] = test system: CAKI-1
[30] = test system: U-251
[31] = test system: Malme-3M
[32] = test system: A549
[33] = test system: SNB-75
[34] = test system: NCI-H460
[35] = test system: MDA-N
[36] = test system: SNB-19
[37] = test system: CCRF-CEM
[38] = test system: SW-620
[39] = test system: HCT-116
[40] = test system: Hs-578T
[41] = test system: OVCAR-4
[42] = test system: UACC-62
[43] = test system: M14
[44] = test system: NCI-H23
[45] = test system: RXF 393
[46] = test system: MCF7
[47] = test system: RPMI-8226
[48] = test system: SK-MEL-5
[49] = test system: MDA-MB-231
[50] = test system: SR
[51] = test system: OVCAR-5
[52] = test system: K562
[53] = test system: DU-145
[54] = test system: NCI-H522
[55] = test system: COLO 205
[56] = test system: MOLT-4
[57] = test system: IGROV-1
[58] = test system: SF-268

Measured: GI50

COc1ccc(Cc2c(-c3ccc(C)cc3)n[nH]c(=O)c2C2C(=O)N(c3ccccc3)N=C2c2ccccc2)cc1 (stereo not drawn)
42.9 µM: [27]
inactive: [1] 21.9 µM | [2] 27.6 µM | [3] 22.3 µM | [4] 26.8 µM | [5] 19 µM | [6] 35.7 µM | [7] 33 µM | [8] 29.3 µM | [9] 20.6 µM | [10] 40.1 µM | [11] > 65.6 µM | [12] 25.1 µM | [13] 20.3 µM | [14] 25.1 µM | [15] 30.3 µM | [16] 30.9 µM | [17] 29.2 µM | [18] 29.4 µM | [19] 26.7 µM | [20] 24.3 µM | [21] 31.7 µM | [22] 28 µM | [23] 30.9 µM | [24] 52.8 µM | [25] 39.3 µM | [26] 30.2 µM | [28] 39.7 µM | [29] 37.1 µM | [30] 34.8 µM | [31] 24.1 µM | [32] 31.4 µM | [33] 23.9 µM | [34] 30.5 µM | [35] 24.4 µM | [36] 36.1 µM | [37] 32.2 µM | [38] 37.7 µM | [39] 21.8 µM | [40] 31.6 µM | [41] 48.2 µM | [42] 20 µM | [43] 26.9 µM | [44] 25.8 µM | [45] 26.7 µM | [46] 44.5 µM | [47] 42 µM | [48] 20.7 µM | [49] 35.6 µM | [50] 37.1 µM | [51] 33 µM | [52] 28 µM | [53] 43.7 µM | [54] 44.3 µM | [55] 20.7 µM | [56] 23.1 µM | [57] 32.1 µM | [58] 38.9 µM
